The values that follow come from article PMC8593015 (Scientific Reports, 2021).

Where “and” joins values, the source holds several entries; their conditions need not be identical. Identical values can stand only once.

The target in test [1] is T1, M. tb EgtD (Mycobacterium tuberculosis, UniProt P9WN47).
T1 construct: thioredoxin (N, cleaved yes); polyhistidine (N, cleaved yes); made in house; host or cells: E. coli (T7 cells), pET32-derived vector
T1 sequence (P9WN47 1-321): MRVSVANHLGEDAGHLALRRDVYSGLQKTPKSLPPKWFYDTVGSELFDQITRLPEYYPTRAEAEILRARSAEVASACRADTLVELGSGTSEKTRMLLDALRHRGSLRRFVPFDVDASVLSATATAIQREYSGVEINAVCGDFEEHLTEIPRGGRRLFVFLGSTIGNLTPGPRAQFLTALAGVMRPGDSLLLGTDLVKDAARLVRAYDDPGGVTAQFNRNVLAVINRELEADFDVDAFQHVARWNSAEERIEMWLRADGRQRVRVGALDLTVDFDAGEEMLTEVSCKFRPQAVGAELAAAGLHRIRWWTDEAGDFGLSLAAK
Nature of the test: biochemical.

Test [2] deals with M. tb. The arrangement: method as in PMID 22100163, PMID 24586159, PMID 22988030. The note with it: macrophage cells and infected mice; cited from earlier work.
In test [3] the test system is Mycobacterium marinum (M. marinum). The note with it: cited from earlier work.

Turning to `CS(=O)(=O)c1ccc(-c2nc(-c3ccc(F)cc3)c(-c3ccncc3)[nH]2)cc1` [Cay-10571, reference compound], the EC50 (usually the concentration that produces a half-maximal response) in test [1] was < 20 µM and 7 µM.

`O=C(O)CNc1cccc(C(=O)NCCc2c[nH]cn2)c1` [HD1]: the EC50 in test [1] came to 89 ± 19 µM. Still for that read-out and setting: as for `O=C(O)C(Cc1cnc[nH]1)n1cccc1` (centres unmarked) [HD2], the figure is 33 ± 3 µM; as for `O=C(O)C(Cc1cnc[nH]1)NC(=S)NCc1ccccc1` (centres unmarked) [HD3], 47 ± 5 µM; as for `CCOc1ccccc1CN(CC)C(=O)[C@H](N)Cc1c[nH]cn1` [HD4], 25 ± 4 µM.

On to `CN(Cc1ccc(Oc2ccccc2)cc1)C(=O)[C@H](N)Cc1c[nH]cn1` [HD5], for which, in test [1], the response was half-maximal at 30 ± 3 µM (EC50). Turning to `O=C(N[C@@H](Cc1c[nH]cn1)C(=O)O)C1CC=CC1` [HD6], a half-maximal response in test [1] (EC50) required 85 ± 19 µM. Further, in test [1] (ratio of EC50 values), the “fold decrease in inhibitory activity versus HD2 and HD3” value is on record as 1.5–2.5 fold. As for `CN(C)CCN(Cc1cnc[nH]1)C(=O)CN(C)Cc1ccccc1` [HD7], the EC50 in test [1] is 85 ± 12 µM. `Cc1ccc(C(C)C(=O)N(CCN(C)C)Cc2cnc[nH]2)cc1` (centres unmarked) [HD8] yielded an EC50 in test [1] of 160 ± 60 µM. Still for that read-out and setting: as for `CCOc1ccccc1OCCN(C)Cc1cnc[nH]1` [HD9], the figure is 36 ± 4 µM. The same measure, in the same setting: the same measure for `Cc1cccc(C(C(=O)NCCc2c[nH]cn2)N(C)C)c1` (centres unmarked) [HD10]: 32 ± 4 µM. Take `Cc1ccc(NC(=O)c2ccc(CN3CCN(C)CC3)cc2)cc1Nc1nccc(-c2cccnc2)n1` [Imatinib]: the “intracellular replication of M. tb” value in test [2] was “decrease in the intracellular replication”. Also, the “effect of combination with Rifampicin” value in test [3] (M. marinum-infected macrophage cells, Imatinib and Rifampicin) is “synergistic effect”. Besides, in test [3] (macrophage cells and infected mice), the “intracellular replication of M. marinum” value was “decrease in the intracellular replication”. As for `O=c1cc(N2CCOCC2)oc2c1ccc1ccccc12` [NU-7026, reference compound], the EC50 in test [1] is < 20 µM and 5.4 µM. On the same count and under the same terms, the same measure for `Cc1cc(C(C)Nc2ccccc2)c2nc(N3CCOCC3)cc(=O)n2c1` (centres unmarked) [TGX-221, reference compound]: < 20 µM and 15.2 µM.
